Test results taken from patent publication US20210063414A1, “METHODS FOR PREVENTING AND/OR TREATING BONE LOSS CONDITIONS BY MODULATING IRISIN” (Dana-Farber Cancer Institute, Inc., priority 2018, published 2021).
Entries after “also recorded” stand apart in the source; their conditions may differ.

System: MLO-Y4 cells
Assay: Integrin-like signaling (pFAK, pZyxin, pAKT, pCREB) in MLO-Y4 cells, immunoblot
Type: cell-based
Details: MLO-Y4, inhibitor pre-treatment 10 minutes before irisin
Experimental: Integrin heterodimer binds to its ligand. The interaction results in phosphorylation of FAK and Zyxin, followed by phosphorylation of AKT (at T308) and CREB. PM is plasma membrane. FIG. 2C and FIG. 2D show the immunoblots. MLO-Y4 cells were seeded and incubated until 60% cell density. The cells were incubated with serum free medium (FreeStyle™ 293 medium) for 4 hours and were treated for indicated time with 10 nM norepinephrine or irisin (FIG. 2C) or indicated concentrations of irisin for 10 minutes (FIG. 2D). Cells were lysed to detect the indicated protein level using immunoblot analysis.
Certain materials and methods were used to generate the results described herein. For example, the data shown in FIG. 1A resulted from MLO-Y4 (an osteocyte-like cell line) cells treated with the indicated concentration of irisin and hydrogen peroxide for 4 hours. Cells were stained with Hoechst 33342 (ThermoFisher Scientific, catalog number H3570) and Eth-D1 (ThermoFisher Scientific, catalog number E1169) and analyzed to determine the percentage of cell death using ImageJ. The data shown in FIG. 2D resulted from MLO-Y4 incubated in serum free medium (FreeStyle™ 293 expression medium, ThermoFisher Scientific, catalog number 12338018) for 4 hours followed by treatment of indicated concentrations of irisin for 10 minutes. Cells were lysed to detect the indicated protein level using immunoblot analysis (Cell Signaling Technology, catalog numbers 3283S, 3285S, 8467S, 3553S, 9198S, and 9104S; Abcam, catalog number ab49900-100ul). The data shown in FIG. 3 resulted from 3T3-F442A cells incubated in serum free medium for 4 hours followed by treatment of indicated concentrations of irisin for 10 minutes. Cells were lysed by RIPA buffer to detect the indicated protein level using immunoblot analysis. The data shown in FIG. 4 were generated from 100 nM flag-tagged irisin (Enzo life sciences, catalog number ADI-908-307-3010) incubated with 5 nM of the indicated 6 his-tag integrins (R & D Systems Inc., catalog numbers 7064-AB-025, 5668-A4-050, 5438-A9-050, 6357-AB-050, and 6579-AV-025) in the presence of RGDS peptide (R & D Systems Inc., catalog number 3498/10) or its control peptide (Enzo Life Sciences, catalog Number BML-P701-0005) followed by immunoprecipitation using 6 his-tag beads (ThermoFisher Scientific, catalog number R901-01). Co-precipitated irisin was analyzed by immunoblot analysis against flag tag (Sigma Aldrich, catalog number A8592). The data shown in FIGS. 5A and 5B were generated from MLO-Y4 cells treated and analyzed as in the experiments used to generate the data shown in FIG. 2D, except that pre-treatment of 100 nM RGDS (FIG. 5A) or echistatin (R & D Systems Inc., catalog number 3202/100U) (FIG. 5B) for 10 minutes was performed before irisin treatment. The data shown in FIGS. 6A and 6B were generated from MLO-Y4 cells incubated in serum free medium for 3 hours followed by treatment of indicated time of 10 nM irisin for 16 hours. RNAs were extracted from the cells and the sclerostin mRNA level was analyzed by qPCR (FIG. 6A) or treated and analyzed as in (FIG. 6A), except that pre-treatment of 10 μM RGDS, RGDyK (Selleck, catalog number S7844), or echistatin was performed for 10 minutes before irisin treatment. The data shown in FIGS. 7A and 7B were generated from 8 week-old mice injected with the indicated dose of irisin for 6 days. Tibias were collected and treated with collagenase to obtain mRNA from the osteocyte-enriched bones. Sclerostin mRNA level was analyzed by qPCR (FIG. 7A). Serum was collected to analyze the sclerostin protein level using ELISA kit (R&D Systems Inc., catalog number MSST00) (FIG. 7B). The data shown in FIG. 8 were generated from 8 week-old mice injected with the indicated dose of irisin for 6 days. Epididymal fats were collected, RNAs were extracted from the tissues, and mRNA levels of the indicated genes were analyzed by qPCR. […]

## N=C(N)NCCC[C@@H]1NC(=O)[C@H](CCCCN)NC(=O)[C@@H](Cc2ccc(O)cc2)NC(=O)[C@H](CC(=O)O)NC(=O)CNC1=O [cyclo RGDyK]
  effect of integrin inhibitor on irisin-induced signaling (phosphorylation of FAK, Zyxin, CREB): block irisin-induced signaling

## RGDS peptide: classical integrin competitive inhibitory peptide, commercially available form of the RGD peptide
  effect of integrin inhibitor on irisin-induced signaling (phosphorylation of FAK, Zyxin, CREB): most irisin signaling in osteocytes was inhibited; also recorded: dramatically suppressed
